pIC50: −log10 of the molar value. Values belong to the compound of their own block, whether it stands above or below them. Calls of active or inactive are those of the source. No cut-off for these calls is given here.
Key:
[1] = target: Rho-associated protein kinase 1 (Homo sapiens, UniProt Q13464); experiment: Inhibition of ROCK1 by IMAP assay
Rattus norvegicus [2] = experiment: Decrease in mean arterial blood pressure in spontaneous hypertensive rat model at 30 mg/kg, sc; assay type: functional, organism-based; parameters: dose 30 mg/kg; conditions: Artery
[3] = target: Serine/threonine-protein kinase Chk1 (Homo sapiens) (UniProt O14757); experiment: Inhibition of CHK1 at 2 uM
[4] = target: Hepatocyte growth factor receptor (Homo sapiens) (UniProt P08581); experiment: Inhibition of Met at 2 uM
[5] = target: Casein kinase I isoform delta (Homo sapiens) (UniProt P48730); experiment: Inhibition of CK1delta at 2 uM
[6] = target: MAP kinase-activated protein kinase 2 (Homo sapiens) (UniProt P49137); experiment: Inhibition of MAPK2 at 2 uM
[7] = target: Platelet-derived growth factor receptor beta (Homo sapiens) (UniProt P09619); experiment: Inhibition of PDGFRbeta at 2 uM
[8] = target: Serine/threonine-protein kinase PAK 2 (Homo sapiens) (UniProt Q13177); experiment: Inhibition of PAK2 at 2 uM
[9] = target: Serine/threonine-protein kinase STK11 (Homo sapiens) (UniProt Q15831); experiment: Inhibition of LKB1 at 2 uM
Rattus norvegicus [10] = experiment: Decrease in mean arterial blood pressure in spontaneous hypertensive rat model at 10 mg/kg, sc; assay type: functional, organism-based; parameters: dose 10 mg/kg; conditions: Artery
[11] = target: Tyrosine-protein kinase CSK (Homo sapiens) (UniProt P41240); experiment: Inhibition of CSK at 2 uM
[12] = target: Tyrosine-protein kinase Lck (Homo sapiens) (UniProt P06239); experiment: Inhibition of LCK at 2 uM
[13] = target: Dual specificity mitogen-activated protein kinase kinase 1 (Homo sapiens) (UniProt Q02750); experiment: Inhibition of MEK1 at 2 uM
[14] = target: Proto-oncogene tyrosine-protein kinase Src (Homo sapiens) (UniProt P12931); experiment: Inhibition of cSRC at 2 uM
[15] = target: Calcium/calmodulin-dependent protein kinase type IV (Homo sapiens) (UniProt Q16566); experiment: Inhibition of CaMK4 at 2 uM
[16] = target: Cyclin-dependent kinase 2 (Homo sapiens) (UniProt P24941); experiment: Inhibition of CDK2 at 2 uM
[17] = Inhibition of MAPK at 2 uM
[18] = target: Insulin receptor (Homo sapiens) (UniProt P06213); experiment: Inhibition of IR at 2 uM
[19] = target: Ribosomal protein S6 kinase alpha-3 (Homo sapiens) (UniProt P51812); experiment: Inhibition of Rsk2 at 2 uM
[20] = target: BDNF/NT-3 growth factors receptor (Homo sapiens) (UniProt Q16620); experiment: Inhibition of TRKbeta at 2 uM
[21] = target: Tyrosine-protein kinase ZAP-70 (Homo sapiens) (UniProt P43403); experiment: Inhibition of Zap70 at 2 uM
[22] = Inhibition of CK2 at 2 uM
[23] = target: Aurora kinase A (Homo sapiens) (UniProt O14965); experiment: Inhibition of AuroraA at 2 uM
[24] = target: Glycogen synthase kinase-3 beta (Homo sapiens) (UniProt P49841); experiment: Inhibition of GSK3-beta at 2 uM
Rattus norvegicus [25] = experiment: Decrease in mean arterial blood pressure in spontaneous hypertensive rat model at 3 mg/kg, sc; assay type: functional, organism-based; parameters: dose 3 mg/kg; conditions: Artery
[26] = target: RAF proto-oncogene serine/threonine-protein kinase (Homo sapiens) (UniProt P04049); experiment: Inhibition of cRAF at 2 uM
[27] = target: Epidermal growth factor receptor (Homo sapiens) (UniProt P00533); experiment: Inhibition of EGFR at 2 uM
[28] = target: Serine/threonine-protein kinase Nek2 (Homo sapiens) (UniProt P51955); experiment: Inhibition of NEK2 at 2 uM
Serine/threonine-protein kinase Nek2 (Homo sapiens), sequence (P51955 whole entry): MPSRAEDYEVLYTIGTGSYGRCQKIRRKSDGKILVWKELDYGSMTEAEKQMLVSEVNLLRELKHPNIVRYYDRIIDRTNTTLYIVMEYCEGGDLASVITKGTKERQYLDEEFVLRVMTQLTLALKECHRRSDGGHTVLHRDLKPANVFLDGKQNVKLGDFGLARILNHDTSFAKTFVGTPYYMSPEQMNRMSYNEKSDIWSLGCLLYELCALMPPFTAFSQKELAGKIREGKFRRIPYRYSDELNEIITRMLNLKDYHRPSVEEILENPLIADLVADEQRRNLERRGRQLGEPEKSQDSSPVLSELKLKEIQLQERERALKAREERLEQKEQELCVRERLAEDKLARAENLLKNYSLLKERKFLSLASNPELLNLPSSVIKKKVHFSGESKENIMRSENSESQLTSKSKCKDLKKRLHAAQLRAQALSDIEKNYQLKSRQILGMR

Rho-associated protein kinase 1, sequence (Q13464 whole entry): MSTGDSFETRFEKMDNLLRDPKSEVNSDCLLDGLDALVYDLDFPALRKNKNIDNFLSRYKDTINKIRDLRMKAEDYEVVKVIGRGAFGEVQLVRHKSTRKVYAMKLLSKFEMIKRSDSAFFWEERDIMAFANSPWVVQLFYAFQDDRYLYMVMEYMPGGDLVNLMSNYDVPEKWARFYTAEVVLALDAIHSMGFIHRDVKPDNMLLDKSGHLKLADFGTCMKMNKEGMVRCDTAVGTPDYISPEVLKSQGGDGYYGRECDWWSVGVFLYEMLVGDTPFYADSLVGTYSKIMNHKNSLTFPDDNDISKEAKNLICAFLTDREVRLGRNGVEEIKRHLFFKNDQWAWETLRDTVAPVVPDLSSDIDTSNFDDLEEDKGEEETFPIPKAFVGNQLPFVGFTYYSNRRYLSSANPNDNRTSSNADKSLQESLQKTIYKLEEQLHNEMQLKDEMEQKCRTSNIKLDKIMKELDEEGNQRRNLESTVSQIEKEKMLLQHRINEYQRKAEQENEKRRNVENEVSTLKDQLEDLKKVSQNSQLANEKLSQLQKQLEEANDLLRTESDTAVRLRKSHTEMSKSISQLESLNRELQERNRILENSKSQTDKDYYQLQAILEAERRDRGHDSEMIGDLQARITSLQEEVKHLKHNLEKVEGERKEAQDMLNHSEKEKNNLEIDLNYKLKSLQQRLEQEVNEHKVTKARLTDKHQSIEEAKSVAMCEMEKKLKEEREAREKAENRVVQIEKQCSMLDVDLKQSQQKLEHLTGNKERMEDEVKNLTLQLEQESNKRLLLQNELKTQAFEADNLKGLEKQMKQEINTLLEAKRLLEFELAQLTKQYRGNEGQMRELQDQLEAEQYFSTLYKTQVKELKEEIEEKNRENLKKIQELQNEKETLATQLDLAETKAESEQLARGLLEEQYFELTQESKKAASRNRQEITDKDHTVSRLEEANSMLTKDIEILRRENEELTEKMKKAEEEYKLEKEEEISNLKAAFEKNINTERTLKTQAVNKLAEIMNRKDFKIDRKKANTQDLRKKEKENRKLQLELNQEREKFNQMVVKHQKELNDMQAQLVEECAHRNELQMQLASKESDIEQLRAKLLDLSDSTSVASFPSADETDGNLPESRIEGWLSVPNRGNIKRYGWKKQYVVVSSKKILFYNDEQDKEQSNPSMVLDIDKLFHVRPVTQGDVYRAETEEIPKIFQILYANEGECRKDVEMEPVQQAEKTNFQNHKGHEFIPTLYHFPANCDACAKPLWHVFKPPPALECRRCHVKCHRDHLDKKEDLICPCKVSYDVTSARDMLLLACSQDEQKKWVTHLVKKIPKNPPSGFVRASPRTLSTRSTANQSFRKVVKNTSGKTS
Tyrosine-protein kinase ZAP-70 (Homo sapiens), sequence (P43403 whole entry): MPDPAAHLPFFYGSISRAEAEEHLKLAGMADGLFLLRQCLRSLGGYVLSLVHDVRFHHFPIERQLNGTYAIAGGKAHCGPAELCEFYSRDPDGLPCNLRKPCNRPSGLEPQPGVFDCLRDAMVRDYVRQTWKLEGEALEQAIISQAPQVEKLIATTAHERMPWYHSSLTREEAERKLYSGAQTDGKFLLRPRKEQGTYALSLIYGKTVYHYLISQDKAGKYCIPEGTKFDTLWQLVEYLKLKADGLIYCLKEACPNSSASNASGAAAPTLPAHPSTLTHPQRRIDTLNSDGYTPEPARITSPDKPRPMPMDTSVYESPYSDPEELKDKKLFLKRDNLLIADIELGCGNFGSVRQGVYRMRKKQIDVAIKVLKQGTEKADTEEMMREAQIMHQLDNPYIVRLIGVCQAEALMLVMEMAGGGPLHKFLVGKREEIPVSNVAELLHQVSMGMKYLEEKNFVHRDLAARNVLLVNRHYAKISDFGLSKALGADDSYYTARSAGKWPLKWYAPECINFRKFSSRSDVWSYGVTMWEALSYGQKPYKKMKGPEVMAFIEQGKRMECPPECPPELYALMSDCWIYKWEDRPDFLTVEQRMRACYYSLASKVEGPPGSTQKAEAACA
Glycogen synthase kinase-3 beta (Homo sapiens), sequence (P49841 whole entry, looked up): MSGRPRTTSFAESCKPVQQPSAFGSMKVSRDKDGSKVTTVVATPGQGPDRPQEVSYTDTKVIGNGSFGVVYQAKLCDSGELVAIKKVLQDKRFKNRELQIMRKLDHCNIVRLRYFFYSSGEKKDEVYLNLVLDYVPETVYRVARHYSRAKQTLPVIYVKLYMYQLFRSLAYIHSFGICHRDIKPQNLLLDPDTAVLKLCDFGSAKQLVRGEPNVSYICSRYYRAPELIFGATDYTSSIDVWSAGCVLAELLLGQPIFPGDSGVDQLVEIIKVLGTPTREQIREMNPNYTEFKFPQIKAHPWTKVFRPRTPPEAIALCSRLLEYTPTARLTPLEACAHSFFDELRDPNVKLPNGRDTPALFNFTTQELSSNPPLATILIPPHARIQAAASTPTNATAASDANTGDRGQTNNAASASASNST
Tyrosine-protein kinase Lck (Homo sapiens), sequence (P06239 2-509 limits assumed): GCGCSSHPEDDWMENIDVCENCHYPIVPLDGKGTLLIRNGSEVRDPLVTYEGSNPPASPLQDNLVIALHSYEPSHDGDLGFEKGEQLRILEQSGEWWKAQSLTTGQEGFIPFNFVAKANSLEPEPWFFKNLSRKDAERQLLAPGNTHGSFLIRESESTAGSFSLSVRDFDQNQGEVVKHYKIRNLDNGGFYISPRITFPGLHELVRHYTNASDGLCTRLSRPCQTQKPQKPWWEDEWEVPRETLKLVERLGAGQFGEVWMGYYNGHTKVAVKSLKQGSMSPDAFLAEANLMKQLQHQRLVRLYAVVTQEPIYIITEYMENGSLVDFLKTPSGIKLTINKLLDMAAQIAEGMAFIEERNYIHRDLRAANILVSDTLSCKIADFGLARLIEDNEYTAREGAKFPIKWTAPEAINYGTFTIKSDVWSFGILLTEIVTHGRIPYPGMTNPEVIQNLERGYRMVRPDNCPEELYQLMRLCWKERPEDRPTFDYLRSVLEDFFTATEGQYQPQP
Dual specificity mitogen-activated protein kinase kinase 1 (Homo sapiens), sequence (Q02750 whole entry): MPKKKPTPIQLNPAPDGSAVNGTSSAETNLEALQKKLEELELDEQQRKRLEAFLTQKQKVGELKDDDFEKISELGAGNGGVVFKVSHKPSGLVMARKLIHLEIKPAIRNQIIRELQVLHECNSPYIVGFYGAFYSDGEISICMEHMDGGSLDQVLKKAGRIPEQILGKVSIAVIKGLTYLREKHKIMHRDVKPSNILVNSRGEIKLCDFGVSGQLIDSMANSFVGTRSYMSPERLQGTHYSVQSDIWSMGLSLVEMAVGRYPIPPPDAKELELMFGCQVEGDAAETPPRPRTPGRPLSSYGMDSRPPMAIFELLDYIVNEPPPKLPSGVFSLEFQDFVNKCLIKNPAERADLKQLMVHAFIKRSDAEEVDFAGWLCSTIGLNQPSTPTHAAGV
Proto-oncogene tyrosine-protein kinase Src (Homo sapiens), sequence (P12931 2-536 limits assumed): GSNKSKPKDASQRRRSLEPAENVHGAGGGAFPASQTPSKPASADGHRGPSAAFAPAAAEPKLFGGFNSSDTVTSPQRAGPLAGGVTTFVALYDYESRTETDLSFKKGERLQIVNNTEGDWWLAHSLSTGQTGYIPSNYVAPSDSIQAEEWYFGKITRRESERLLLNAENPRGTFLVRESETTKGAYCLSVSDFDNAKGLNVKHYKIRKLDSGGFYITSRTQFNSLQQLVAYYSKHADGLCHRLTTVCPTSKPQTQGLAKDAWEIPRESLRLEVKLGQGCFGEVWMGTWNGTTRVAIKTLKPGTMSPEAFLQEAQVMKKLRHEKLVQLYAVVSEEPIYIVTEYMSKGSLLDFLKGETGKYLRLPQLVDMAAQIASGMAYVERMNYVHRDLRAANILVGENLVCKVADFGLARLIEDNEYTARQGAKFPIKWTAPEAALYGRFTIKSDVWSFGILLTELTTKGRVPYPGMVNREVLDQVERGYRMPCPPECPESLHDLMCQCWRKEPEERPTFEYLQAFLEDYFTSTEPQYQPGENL
Serine/threonine-protein kinase STK11 (Homo sapiens), sequence (Q15831 whole entry): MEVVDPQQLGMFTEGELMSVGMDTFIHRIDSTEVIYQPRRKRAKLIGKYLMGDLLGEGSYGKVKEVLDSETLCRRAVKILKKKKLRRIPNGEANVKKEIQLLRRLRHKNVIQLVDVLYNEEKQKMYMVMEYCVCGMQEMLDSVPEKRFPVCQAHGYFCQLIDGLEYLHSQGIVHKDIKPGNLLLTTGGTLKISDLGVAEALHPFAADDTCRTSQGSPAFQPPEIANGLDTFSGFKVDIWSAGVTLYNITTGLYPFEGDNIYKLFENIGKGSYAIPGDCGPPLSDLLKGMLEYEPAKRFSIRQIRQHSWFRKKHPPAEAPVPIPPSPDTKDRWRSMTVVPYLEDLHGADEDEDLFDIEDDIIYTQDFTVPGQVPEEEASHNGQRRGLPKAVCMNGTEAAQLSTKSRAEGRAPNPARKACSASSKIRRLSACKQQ

SMILES: C[C@@H]1CNCCN1c1nc(Nc2ccncc2)nc(NC2Cc3ccccc3C2)n1
pIC50 [1]: 6.93

SMILES: C[C@H]1CNCCN1c1nc(Nc2ccncc2)nc(NC2Cc3ccccc3C2)n1
pIC50 [1]: 7.06

SMILES: c1ccc2c(c1)CCC(Nc1nc(Nc3ccncc3)nc(N3CCNCC3)n1)C2 (stereo not drawn)
pIC50 [1]: 7.64

SMILES: c1ccc2c(c1)CCC2Nc1nc(Nc2ccncc2)nc(N2CCNCC2)n1 (stereo not drawn)
pIC50 [1]: 6.73

SMILES: CNCCN(C)c1nc(Nc2ccncc2)nc(NC2Cc3ccccc3C2)n1
pIC50 [1]: 7.09

SMILES: c1ccc2c(c1)CC(Nc1nc(Nc3ccncc3)nc(N3CCCNCC3)n1)C2
pIC50 [1]: 7.96

SMILES: C[C@@H](N)[C@H]1CC[C@H](C(=O)Nc2ccncc2)CC1
Activity (Rattus norvegicus [2]): Active

SMILES: c1ccc2c(c1)CC(Nc1nc(Nc3ccncc3)nc(N3CCNCC3)n1)C2
inhibition [3]: < 50%
inhibition [4]: < 50%
inhibition [5]: < 50%
inhibition [6]: < 50%
inhibition [7]: < 50%
inhibition [8]: < 50%
inhibition [9]: < 50%
Activity (Rattus norvegicus [10]): Active
inhibition [11]: < 50%
inhibition [12]: < 50%
inhibition [13]: < 50%
inhibition [14]: < 50%
inhibition [15]: < 50%
inhibition [16]: < 50%
inhibition [17]: < 50%
inhibition [18]: < 50%
inhibition [19]: < 50%
pIC50 [1]: 8.22
inhibition [20]: < 50%
inhibition [21]: < 50%
inhibition [22]: < 50%
inhibition [23]: < 50%
inhibition [24]: < 50%
Activity (Rattus norvegicus [25]): Active
inhibition [26]: < 50%
inhibition [27]: < 50%
inhibition [28]: < 50%

SMILES: c1cncc(Nc2nc(NC3Cc4ccccc4C3)nc(N3CCNCC3)n2)c1
pIC50 [1]: 5.08

Further lines, results first:

pIC50 [1]: 8.70
SMILES: c1ccc2c(c1)CC(Nc1cc(Nc3ccncc3)nc(N3CCNCC3)n1)C2

pIC50 [1]: 7.85
SMILES: c1ccc2c(c1)CC(Nc1cc(N3CCNCC3)nc(Nc3ccncc3)n1)C2

pIC50 [1]: 6.49
SMILES: c1ccc(CCNc2nc(Nc3ccncc3)nc(N3CCNCC3)n2)cc1

pIC50 [1]: 5.13
SMILES: c1ccc(Nc2nc(NC3Cc4ccccc4C3)nc(N3CCNCC3)n2)cc1

pIC50 [1]: 6.00
SMILES: c1ccc(Nc2nc(NC3Cc4ccccc4C3)nc(N3CCNCC3)n2)nc1

pIC50 [1]: 6.05
SMILES: c1cc(Nc2nc(NC3CCCC3)nc(N3CCNCC3)n2)ccn1

pIC50 [1]: 5.92
SMILES: c1ccc2c(c1)CC(Nc1nc(Nc3ccncc3)cc(N3CCNCC3)n1)C2

pIC50 [1]: 6.87
SMILES: C[C@H]1CN(c2nc(Nc3ccncc3)nc(NC3Cc4ccccc4C3)n2)CCN1

pIC50 [1]: 6.40
SMILES: c1ccc(CNc2nc(Nc3ccncc3)nc(N3CCNCC3)n2)cc1

pIC50 [1]: 5.08
SMILES: c1ccc2c(c1)CC(Nc1nc(Nc3ccncc3)nc(N3CCCCC3)n1)C2

pIC50 [1]: 8.10
SMILES: c1ccc2c(c1)CC(Oc1nc(Nc3ccncc3)nc(N3CCNCC3)n1)C2

pIC50 [1]: 8.10
SMILES: C[C@@H]1CN(c2nc(Nc3ccncc3)nc(NC3Cc4ccccc4C3)n2)CCN1

pIC50 [1]: 6.52
SMILES: CN1CCN(c2nc(Nc3ccncc3)nc(NC3Cc4ccccc4C3)n2)CC1

Reference: ChEMBL document CHEMBL1154592, “Triazine and pyrimidine based ROCK inhibitors with efficacy in spontaneous hypertensive rat model” (Bioorg Med Chem Lett, 2009)
